Measured values as given in patent publication US20240251787A1, “AGROCHEMICAL COMPOSITION, AGROCHEMICAL FORMULATION, USE OF A DIOXABICYCLOALKANE DERIVATIVE, AND, METHOD FOR THE TREATMENT AND/OR PREVENTION OF DISEASES OR PESTS IN A PLANT OR PLANT SEED” (Oxiteno S.A. Indústria e Comércio, priority 2021, published 2024).
Like-named read-outs stand apart in the source and are kept apart here.

Columns and labels:
[1] = Solvency: maximum amount of active ingredient solubilized per liter of solvent; details: for Solvency in N-methylpyrrolidone (NMP): solvent N-methylpyrrolidone (NMP); for Solvency in γ-butyrolactone: solvent γ-butyrolactone
Protocol: The above compositions were prepared at a temperature of about 50° ° C. stirred with a vortex mixer until visual inspection indicated the absence of solids, confirming solubilization of the active ingredient in the solvent.

[2] = tested on: Euphorbia pulcherrima (Euphorbiaceae), Poinsettia
Source text: Phytotoxicity data were generated in tests on Poinsettia (red leaves plant), since this leaf is sensitive to damage caused by chemical agents, which makes it possible to verify and compare the tested solvents.

[3] = safety data sheet class; cited from earlier work
[4] = 1-octanol/water; cited from earlier work
[5] = Crystallization test of azoxystrobin solution upon dilution in water; format: physicochemical; details: azoxystrobin solution (100 g/L) in the solvent diluted 1:20 in water
Source text: The active ingredient azoxystrobin was chosen to carry out an additional test of crystallization of the active ingredient upon dilution in water. […] Among the solvents chosen for evaluation are the solvents dihydrolevoglucosenone, γ-butyrolactone, N-methylpyrrolidone, and triacetin.

[6] = Euphorbia pulcherrima (Poinsettia), in vivo, 24 h

Structure (SMILES)	Solvency in N-methylpyrrolidone (NMP) [1] [g/L]	Solvency in γ-butyrolactone [1] [g/L]	Eye irritation [3]	Observation by dilution [5]	also measured
CS(=O)(=O)c1ccc(C(=O)C2C(=O)CCCC2=O)c([N+](=O)[O-])c1 [Mesotrione]	400	300			
OC(Cc1ccccc1Cl)(Cn1nc[nH]c1=S)C1(Cl)CC1 (centres unmarked) [Prothioconazole]	1100	900			
O=C1CCC2COC1O2 (centres unmarked) [dihydrolevoglucosenone, 6,8-dioxabicyclo[3.2.1]octan-4-one]			2A	Two-phase	Phytotoxicity (damage %) [2, 6]: 6%; logP [4]: −1.52
CC(=O)OCC(COC(C)=O)OC(C)=O [Triacetin]				Two-phase	
CN1CCCC1=O [NMP, N-methylpyrrolidone]			2A	Immediate	Phytotoxicity (damage %) [2, 6]: 42%; Reproductive system tox. [3]: 1B; Respiratory tox. [3]: 3; Skin irritation [3]: 2; logP [4]: −0.40
CO/C=C(/C(=O)OC)c1ccccc1Oc1cc(Oc2ccccc2C#N)ncn1 [Azoxystrobin]	900	800			
O=C1CCCO1 [γ-butyrolactone]			1	Immediate	Phytotoxicity (damage %) ([2]; damage observed in each Poinsettia leaf after 24 h of exposure): 27%; Aquatic environment tox. [3]: 3; Central nervous system tox. [3]: 3
